From patent US20110112184A1, “COMPOUNDS WITH GLYCIDIC STRUCTURE ACTIVE IN THE THERAPY OF SYSTEMIC AND LOCAL INFLAMMATION” (priority 2008, published 2011)

tested on: HT29 cells; assay: LPS-induced IL-8 production by HT29 intestinal epithelial cells (ELISA); format: cell-based, human; details: compounds 50 mg/L to 5 μg/L for 18 h, then LPS (Salmonella enterica abortus equi) 1 μg/ml 6 h
Procedure: FIG. 2A. LPS-induced IL-8 production by HT29 cells in the absence or presence of the indicated concentrations of compound (c) 4, 5, 6, 7, 4′, 14.
The effect of the compounds on the release of IL-8 or KC was tested upon stimulation of intestinal epithelial cells (IEC) with LPS from Salmonella enterica abortus equi. The human IEC line HT29 was used for these experiments. Cells were cultured for 18 h in medium alone or in medium additioned with different concentrations of compounds 4, 5, 6, 7, 4′ and 14 (from 50 mg/L to 5 μg/L). Then, cells were stimulated for 6 h with LPS (1 μg/ml). […] Similar experiments were performed on a human pneumocyte type II cell line (A549) using compound 4 and LPS from Pseudomonas aeruginosa.

SMILES | production of IL-8 induced by LPS
CN(C)c1cccc2c(S(=O)(=O)NCC[C@H]3O[C@H](CO)[C@H](O)[C@H](O)[C@H]3O)cccc12 [4′, 5-(Dimethylamino)-N-[2′-(α-D-galactopyranosyl)ethyl]-1-naphthalenesulfonamide] | significantly inhibited
O=S(=O)(NCC[C@H]1O[C@H](CO)[C@@H](O)[C@H](O)[C@H]1O)c1cccc2ccccc12 [Compound 5] | significantly inhibited
O=C(NCC[C@H]1O[C@H](CO)[C@@H](O)[C@H](O)[C@H]1O)c1cccc2ccccc12 [Compound 6, N-[2′-(α-D-Glucopyranosyl)ethyl]-1-naphtalenecarboxyamide] | significantly inhibited
CCCCN(CCCC)c1cccc2c(S(=O)(=O)NCC[C@H]3O[C@H](CO)[C@@H](O)[C@H](O)[C@H]3O)cccc12 [Compound 7, 5-(Dibutylamino)-N-[2′-(α-D-glucopyranosyl)ethyl]-1-naphthalenesulfonamide] | significantly inhibited
CN(C)c1cccc2c(S(=O)(=O)NCCCC[C@H]3O[C@H](CO)[C@@H](O)[C@H](O)[C@H]3O)cccc12 [Compound 14, 5-(Dimethylamino)-N-[4′-(α-D-glucopyranosyl)butyl]-1-naphthalenesulfonamide] | significantly inhibited
